{
  "source": "patent US11059800B2",
  "about": "“Dehydroleucodine derivatives and uses thereof” (Bioventures, LLC, priority 2013, dated 2021)",
  "key": {"U-937": {"system": "U-937", "assay": "Cytotoxicity, annexin V/7-AAD viability by flow cytometry, U-937", "type": "cell-based, human", "conditions": "U-937, 48 hours, drug range tested 1.25-160 μM", "description": "(§1) In order to assess the structure-activity relationship of DHL and its derivatives, DHL and its derivatives were evaluated against eight human leukemia cell lines. Cell lines were cultured in Iscove's Modified Dulbecco's Medium (IMDM) supplemented with 10%˜20% fetal bovine serum (FBS) according to culture conditions indicated by ATCC and 1% penicillin/streptomycin (Pen/Strep) at 37° C. and 5% CO2. The cells were seeded into 96-well plates and kept at a concentration of 0.5 million cells per mL. The samples were treated with DHL, Leucodine, DHL-Morpholine, DHL-Proline, DHL-Piperidine, and PTL at varying concentrations in triplicates. Cell viability was determined after incubating for 48 hours. The cells were stained with annexin V-fluorescein isothiocyanate or phycoeritrine (FITC/PE) and 7-aminoactinomycin (7-AAD) to detect phosphatidylserine exposition and cell permeability, respectively. At least 50,000 events were recorded per condition on either an LSR-II or LSR-Fortessa flow cytometer (BD Biosciences). Data analysis was conducted using FlowJo 9.6 software for Mac OS X (TreeStar). Cells that were negative for annexin V and 7-AAD were scored as viable."}, "U251": {"system": "U251", "assay": "Single dose tumor cell growth inhibition, CNS Cancer U251", "type": "cell-based, human", "conditions": "U251, single dose 10 μM", "description": "(§2) DHL is cytotoxic to various leukemia, colon cancer, CNS cancer and prostate cancer cell lines."}, "RPMI-8226": {"system": "RPMI-8226", "assay": "Single dose tumor cell growth inhibition, Leukemia RPMI-8226", "type": "cell-based", "conditions": "RPMI-8226, single dose 10 μM", "description": "as §2"}, "Kasumi-1": {"system": "Kasumi-1", "assay": "Cytotoxicity, annexin V/7-AAD viability by flow cytometry, Kasumi-1", "type": "cell-based, human", "conditions": "Kasumi-1, 48 hours, drug range tested 1.25-160 μM", "description": "as §1"}, "HCT-116": {"system": "HCT-116", "assay": "Single dose tumor cell growth inhibition, Colon Cancer HCT-116", "type": "cell-based, human", "conditions": "HCT-116, single dose 10 μM", "description": "as §2"}, "HMOX1 (Heme oxygenase 1)": {"system": "HMOX1 (Heme oxygenase 1)", "assay": "Quantitative PCR of HMOX1 in MOLM-13 or MV-411 cells", "type": "cell-based", "conditions": "20 μM, 6 hours, MOLM-13 and MV-411 cells", "description": "(§3) (FIG. 8A) Graphical representation of the fold changes of HMOX-1 in MOLM-13 cells. Cells were seeded at 0.5 million cells per milliliter and subject to 20 μM of DHL, leucodine, DHL-proline, DHL-piperidine, DHL-morpholine, or parthenolide for 6 hours. RNA was then extracted and quantitative PCR was performed. Experiments were performed in triplicates. Lines represent mean for each specimen, with error bars representing the SD. Fold change was calculated by the delta-delta Ct method. […] (FIG. 8D) Immunoblot for MOLM-13 cells after 6 hours of treatment with either DHL or PTL with 10 or 20 μM. Blot was probed for phospho-p65 and p65 antibodies. Total p65 is shown as the loading control.\n(§4) (FIG. 9A) Graphical representation of the fold changes of HMOX-1 in MV-411 cells. Cells were seeded at 0.5 million cells per milliliter and subject to 20 μM of DHL, leucodine, DHL-proline, DHL-piperidine, DHL-morpholine, or parthenolide for 6 hours. RNA was then extracted and quantitative PCR was performed. Experiments were performed in triplicates. Lines represent mean for each specimen, with error bars representing the SD. Fold change was calculated by the delta-delta Ct method. (FIG. 9B) Graphical representation of the fold changes of HSPA1A in MV-411 cells, with the same experimental setup and analysis as FIG. […].\n(§5) To compare these intracellular effects of DHL and its derivatives, quantitative PCR was performed (FIG. 8 and FIG. 9). MOLM-13 or MV-411 cells were seeded at 0.5 million cells per milliliter. Cells were treated for 6 hours with 20 μM of DHL, Leucodine, DHL-Morpholine, DHL-Proline, DHL-Piperidine or PTL, and then collected. Total RNA was extracted using the Qiashredder and Qiagen Rneasy Mini kits. […] Quantitative PCR was performed using probes for HMOX-1 (Hs01110251_m1), HSPA1A (Hs00359163_s1), and NFKB1 (Hs00765730_m1). […] Single-plex real-time PCR was performed in triplicates in a StepOne plus RealTime PCR system and analyzed with the StepOne Software. Fold change was calculated using the 2-DDCT method described by Livak and Schmittgen."}, "K-562": {"system": "K-562", "assay": "Single dose tumor cell growth inhibition, Leukemia K-562", "type": "cell-based", "conditions": "K-562, single dose 10 μM", "description": "as §2"}, "PC-3": {"system": "PC-3", "assay": "Single dose tumor cell growth inhibition, Prostate Cancer PC-3", "type": "cell-based, human", "conditions": "PC-3, single dose 10 μM", "description": "as §2"}, "NCI-H322M": {"system": "NCI-H322M", "assay": "Single dose tumor cell growth inhibition, Non-Small Cell Lung Cancer NCI-H322M", "type": "cell-based", "conditions": "single dose 10 μM", "description": "as §2"}, "THP-1": {"system": "THP-1", "assay": "Cytotoxicity, annexin V/7-AAD viability by flow cytometry, THP-1", "type": "cell-based, human", "conditions": "THP-1, 48 hours, drug range tested 1.25-160 μM", "description": "as §1"}, "[1]": {"system": "eight human leukemia cell lines", "protocol": "Cell lines were cultured in Iscove's Modified Dulbecco's Medium (IMDM) supplemented with 10%˜20% fetal bovine serum (FBS) according to culture conditions indicated by ATCC and 1% penicillin/streptomycin (Pen/Strep) at 37° C. and 5% CO2. The cells were seeded into 96-well plates and kept at a concentration of 0.5 million cells per mL. […] Cell viability was determined after incubating for 48 hours. The cells were stained with annexin V-fluorescein isothiocyanate or phycoeritrine (FITC/PE) and 7-aminoactinomycin (7-AAD) to detect phosphatidylserine exposition and cell permeability, respectively. At least 50,000 events were recorded per condition on either an LSR-II or LSR-Fortessa flow cytometer (BD Biosciences). Data analysis was conducted using FlowJo 9.6 software for Mac OS X (TreeStar). Cells that were negative for annexin V and 7-AAD were scored as viable."}, "HOP-62": {"system": "HOP-62", "assay": "Single dose tumor cell growth inhibition, Non-Small Cell Lung Cancer HOP-62", "type": "cell-based", "conditions": "HOP-62, single dose 10 μM", "description": "as §2"}, "NCI/ADR-RES": {"system": "NCI/ADR-RES", "assay": "Single dose tumor cell growth inhibition, Ovarian Cancer NCI/ADR-RES", "type": "cell-based", "conditions": "single dose 10 μM", "description": "as §2"}, "SNB-75": {"system": "SNB-75", "assay": "Single dose tumor cell growth inhibition, CNS Cancer SNB-75", "type": "cell-based, human", "conditions": "SNB-75, single dose 10 μM", "description": "as §2"}, "SK-OV-3": {"system": "SK-OV-3", "assay": "Single dose tumor cell growth inhibition, Ovarian Cancer SK-OV-3", "type": "cell-based", "conditions": "SK-OV-3, single dose 10 μM", "description": "as §2"}, "KG-1": {"system": "KG-1", "assay": "Cytotoxicity, annexin V/7-AAD viability by flow cytometry, KG-1", "type": "cell-based, human", "conditions": "KG-1, 48 hours, drug range tested 1.25-160 μM", "description": "In order to assess the structure-activity relationship of DHL and its derivatives, DHL and its derivatives were evaluated against eight human leukemia cell lines. Cell lines were cultured in Iscove's Modified Dulbecco's Medium (IMDM) supplemented with 10%˜20% fetal bovine serum (FBS) according to culture conditions indicated by ATCC and 1% penicillin/streptomycin (Pen/Strep) at 37° C. and 5% CO2. […] Cell viability was determined after incubating for 48 hours."}, "Log P octanol/water": {"assay": "Log P octanol/water", "type": "physicochemical", "conditions": "experimentally determined"}, "HSPA1A": {"system": "HSPA1A", "assay": "Quantitative PCR of HSPA1A in MOLM-13 or MV-411 cells", "type": "cell-based", "conditions": "20 μM, 6 hours, MOLM-13 and MV-411 cells", "description": "as §3, §4, §5"}, "MOLM-13": {"system": "MOLM-13", "assay": "Cytotoxicity, annexin V/7-AAD viability by flow cytometry, MOLM-13", "type": "cell-based, human", "conditions": "MOLM-13, 48 hours, drug range tested 1.25-160 μM", "description": "as §1"}},
  "data": [
    {"smiles": "C=C1C(=O)O[C@@H]2[C@H]3C(C)=CC(=O)C3=C(C)CC[C@@H]12", "note": "[DHL, dehydroleucodine]", "values": [
      {"measurement": "LD50", "setting": "U-937", "result": 18.95, "unit": "µM"},
      {"measurement": "Percent inhibition", "setting": "U251", "result": 30.0, "unit": "%"},
      {"measurement": "Percent inhibition", "setting": "RPMI-8226", "result": 31.7, "unit": "%"},
      {"measurement": "LD50", "setting": "Kasumi-1", "result": 12.92, "unit": "µM"},
      {"measurement": "Percent inhibition", "setting": "HCT-116", "result": 41.3, "unit": "%"},
      {"measurement": "HMOX1 expression, fold change", "setting": "HMOX1 (Heme oxygenase 1)", "result": "upregulated"},
      {"measurement": "Percent inhibition", "setting": "K-562", "result": 42.0, "unit": "%"},
      {"measurement": "Percent inhibition", "setting": "PC-3", "result": 38.6, "unit": "%"},
      {"measurement": "Percent inhibition", "setting": "NCI-H322M", "result": 0.0, "unit": "%"},
      {"measurement": "LD50", "setting": "THP-1", "result": 16.82, "unit": "µM"},
      {"measurement": "anti-leukemic activity / in vitro cytotoxicity", "setting": "[1]", "result": "more potent anti-leukemic activity than PTL in most samples"},
      {"measurement": "LD50 values in the various leukemic cell lines tested", "setting": "[1]; range over the AML cell lines, 48 hours of treatment", "result": "5.02 to 18.95", "unit": "µM"},
      {"measurement": "Percent inhibition", "setting": "HOP-62", "result": 0.0, "unit": "%"},
      {"measurement": "Percent inhibition", "setting": "NCI/ADR-RES", "result": 0.0, "unit": "%"},
      {"measurement": "Percent inhibition", "setting": "SNB-75", "result": 35.5, "unit": "%"},
      {"measurement": "Percent inhibition", "setting": "SK-OV-3", "result": 0.0, "unit": "%"},
      {"measurement": "LD50", "setting": "KG-1", "result": 18.66, "unit": "µM"},
      {"measurement": "Log P octanol/water", "setting": "Log P octanol/water", "result": "2.33 (±0.16)"},
      {"measurement": "HSPA1A expression, fold change", "setting": "HSPA1A", "result": "upregulated"},
      {"measurement": "LD50", "setting": "MOLM-13", "result": 12.59, "unit": "µM"}
    ]}
  ]
}
